The source of these data is patent US6906057B1, “Methods for modulating FXR receptor activity” (Allergan, Inc., priority 1999, dated 2005).

In one experiment the target is T1, FXR-RXRm heterodimer (Rattus norvegicus, UniProt Q62735).
T1 construct: Full-length recombinant rat FXR and human RXR (or RXRm) cloned into the cloning site of plasmid pCMX; expressed in transfected cells; host or cells: CV-1 cells
T1 sequence (Q62735 1-469): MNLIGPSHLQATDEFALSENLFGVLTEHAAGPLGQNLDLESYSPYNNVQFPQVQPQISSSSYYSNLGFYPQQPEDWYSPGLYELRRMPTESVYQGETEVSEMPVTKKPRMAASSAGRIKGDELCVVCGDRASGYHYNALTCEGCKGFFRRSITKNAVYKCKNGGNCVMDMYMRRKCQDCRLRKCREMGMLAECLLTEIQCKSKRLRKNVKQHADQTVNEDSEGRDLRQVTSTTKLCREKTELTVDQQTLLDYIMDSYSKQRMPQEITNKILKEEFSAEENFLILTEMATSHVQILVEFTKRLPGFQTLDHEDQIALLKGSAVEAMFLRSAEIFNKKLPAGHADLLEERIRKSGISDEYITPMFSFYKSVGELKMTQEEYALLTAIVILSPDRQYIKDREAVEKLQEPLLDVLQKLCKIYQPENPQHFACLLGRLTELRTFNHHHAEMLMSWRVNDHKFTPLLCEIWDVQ
T1 sequence (P19793 1-462 D322P partner): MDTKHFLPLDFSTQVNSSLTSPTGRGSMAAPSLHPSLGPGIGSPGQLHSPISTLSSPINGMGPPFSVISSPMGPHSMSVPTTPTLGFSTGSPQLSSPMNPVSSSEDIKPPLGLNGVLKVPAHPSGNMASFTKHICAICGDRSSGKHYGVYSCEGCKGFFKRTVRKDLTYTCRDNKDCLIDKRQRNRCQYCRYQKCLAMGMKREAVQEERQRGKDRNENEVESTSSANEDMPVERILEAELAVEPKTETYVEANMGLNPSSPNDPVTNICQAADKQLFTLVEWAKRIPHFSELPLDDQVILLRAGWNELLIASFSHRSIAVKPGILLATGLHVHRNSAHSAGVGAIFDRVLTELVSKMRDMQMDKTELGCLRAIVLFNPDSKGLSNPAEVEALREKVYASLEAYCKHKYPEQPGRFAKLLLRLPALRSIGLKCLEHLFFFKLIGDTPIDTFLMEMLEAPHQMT
Kind of experiment: EcRE-TK-Luc transactivation in CV-1 cells cotransfected with FXR and RXRm. The experiment is classed as cell-based. To be noted: for FXR transactivating activity: Example 3, FIG. 3, FXR-RXRm, 100 nM unless otherwise indicated, AGN 10 10 μM; for transactivation activity, cells cotransfected with FXR and RXRm: Example 5, FIG. 6. An excerpt:
Because FXR is known to bind to its response element as a heterodimer with RXR, and because the heterodimer can be activated by ligands to RXR, a mutant RXRα protein (RXRm; also referred to as D322P in the Figures) was constructed containing a single point mutation (Asp322 to Pro) in the ligand binding domain of RXR. The use of FXR-RXRm heterodimers, permits unambiguous identification of modulators of FXR activity amongst test compounds.
(§1) Full-length recombinant rat FXR and human RXR (or RXRm) cloned into the cloning site of plasmid pCMX were cotransfected into CV-1 cells using the transient transfection method substantially as described above. Additionally, reporter plasmids were cotransfected with the expression plasmids as described above.
(§2) Luciferase reporter plasmids TK-Luc (described in Heyman et al., Cell 68:397 (1992), hereby incorporated by reference herein) were constructed by placing the firefly luciferase cDNA coding sequence in frame immediately downstream from the herpes virus thymidine kinase promoter (located at nucleotide residues −105 to +51) of the thymidine kinase nucleotide sequence). Six repeats of the EcRE response element, to which the DNA binding domain (DBD) of FXR binds, was also included upstream of the reporter gene. Further details are provided above.
(§3) AGN 10 has the structure: [drawing 3]
(§4) The cells were then lysed as described above, and luciferase activity was measured as an indication of the extent of heterodimer-induced FXR transactivation activity as described above Results are shown in FIG. 2.
CV-1 cells were cotransfected with mammalian expression vectors encoding full length FXR and RXRm, as well as with the luciferase reporter plasmid used in the last experiment. […] All compounds were dissolved in DMSO, except glycochenodeoxycholic acid, taurochenodeoxycholic acid, taurodeoxycholic acid and taurocholic acid, which were dissolved in phosphate buffered saline (PBS). Following exposure to the compounds, the cells were washed, lysed, and the luciferase activity measured as indicated above.
(§5) These compounds were assayed for FXR modulating activity using the transactivation assay described above. All compounds were dissolved in DMSO. As above, the reporter plasmid contained 6 copies of the ecdysone response element (EcRE) placed along with the herpes virus thymidine kinase promoter upstream of the firefly luciferase gene. The reporter plasmid was transfected into CV-1 cells, either a) alone, b) with an expression plasmid encoding full length FXR, c) with an expression plasmid encoding full length RXRα, d) with two expression plasmids encoding full length FXR and RXRα respectively, and e) with two expression plasmids encoding full length FXR and RXRm, respectively. Plasmid constructions, transfection, incubation with test compounds, and luciferase activity assays were performed as described in Example 1.

A further experiment concerns the target T2, FXR-RXRα heterodimer (UniProt P19793+Q62735).
T2 construct: Full-length recombinant rat FXR and human RXR (or RXRm) cloned into the cloning site of plasmid pCMX; expressed in transfected cells; host or cells: CV-1 cells
T2 sequence (Q62735 1-469): T1 sequence (Q62735 1-469)
T2 sequence (P19793 1-462): T1 sequence (P19793 1-462 D322P partner) with P322D
Kind of experiment: EcRE-TK-Luc transactivation in CV-1 cells cotransfected with FXR and RXR. It is filed as cell-based, rat. The note with it: for luciferase activity response, cells cotransfected with FXR and RXRα: Example 5, FIG. 6; for FXR activity as stated for panel compounds: Example 5 panel description, JH III 50 μM.
Excerpt: as §1, §2, §3, §4
Transient cotransfection of full length rat FXR, human RXR and the luciferase reporter plasmid was performed as above. A set of cotransfectant CV-1 cells was incubated in 1, 2, 10, and 20 μM AGN 10. Separate sets of cotransformants were given 1, 10, 20, 100, and 200 μM of either CDCA, DCA or LCA. All compounds were dissolved in DMSO. All transformant cells were permitted to incubate for approximately 44 hours with the indicated compound, then the amount of transactivation activity was measured using the luciferase assay, as indicated above.
as §5

In a further experiment the target is T3, FXR-RXRα complex (UniProt P19793+Q62735).
T3 sequence (Q62735 1-469): T1 sequence (Q62735 1-469)
T3 sequence (P19793 1-462): T1 sequence (P19793 1-462 D322P partner) with P322D
To be noted: Forman et al., Cell 81:687-693 (1995); cited from earlier work.

For another experiment, the system named is FXR or RXR alone. The note with it: Forman et al., Cell 81:687-693 (1995); cited from earlier work.
The mark [1] stands for this setting: Example 2, FIG. 2, ~44 hours, AGN 10 5-10 μM, LG 268 100 nM, bovine bile extract.

Residue numbers refer to the chain shown, from its start.

On to `C[C@H](CCC(=O)O)[C@H]1CC[C@H]2[C@@H]3C(=O)C[C@@H]4CC(=O)CC[C@]4(C)[C@H]3CC[C@]12C` [3-7-diketolithocholic acid, 3,7-diketolithocholic acid], for which the FXR transactivating activity entry at FXR-RXRm heterodimer (~44 hours) is reported as “measurable FXR transactivating activity”. `C[C@H](CCC(=O)O)[C@H]1CC[C@H]2[C@@H]3C(=O)C[C@@H]4C[C@H](O)CC[C@]4(C)[C@H]3CC[C@]12C` [7-ketolithocholic acid]: the FXR transactivating activity entry on FXR-RXRm heterodimer (~44 hours) was “measurable FXR transactivating activity”. Turning to `CC1(C)CCC(C)(C)c2cc(/C(=C/c3ccc(C(=O)C(=O)O)cc3)[Si](C)(C)C)ccc21` [AGN 10], the “FXR-mediated transactivation (luciferase activity), FXR-RXRm cotransfected cells” value on FXR-RXRm heterodimer (setting [1]) is on record as “almost as much activity”. Also, at FXR-RXRm heterodimer (~44 hours), the FXR transactivating activity entry is reported as “measurable FXR transactivating activity”. Also, on FXR-RXRm heterodimer, the “transactivation activity, cells cotransfected with FXR and RXRm” value is recorded as “significant levels of transctivation activity”. For the same compound, at FXR-RXRm heterodimer (Example 5, conclusion), the “FXR ligand classification from the data” value is on record as “FXR agonists”. In addition, the “FXR-mediated transactivation (luciferase activity), FXR-RXR cotransfected cells” value at FXR-RXRα heterodimer (setting [1]) is “almost as much activity”. Further, the “concentration at which FXR agonist activity is at a maximum” value on FXR-RXRα heterodimer (Example 4, FIG. 4, rat FXR, human RXR, ~44 hours) is 10 µM. The “luciferase activity response, cells cotransfected with FXR and RXRα” value at FXR-RXRα heterodimer was “highest activity response”. For the compound `CC1(C)CCC(C)(C)c2cc(C(=O)Nc3ccc(C(=O)O)cc3)ccc21` [Am 580], the “FXR activity as stated for panel compounds” value (shortened to “FXR activity as stated”) on FXR-RXRα heterodimer is on record as “does not have FXR activity”. Take `C/C(=C\c1ccc(C(=O)O)cc1)c1ccc2c(c1)C(C)(C)CCC2(C)C` [TTNPB]: the “transactivation activity, cells cotransfected with FXR and RXRm” value at FXR-RXRm heterodimer is “significant levels of transctivation activity”. Also, on FXR-RXRα heterodimer, the “luciferase activity response, cells cotransfected with FXR and RXRα” value is “highest activity response”; the “FXR activity as stated” value is reported as “has FXR activity”. As to `CC(C)CCC[C@@H](C)[C@H]1CC[C@H]2[C@@H]3CC=C4C[C@@H](O)CC[C@]4(C)[C@H]3CC[C@]12C` [cholesterol], the “activation of the FXR-RXR complex” value at FXR-RXRα complex is given as “did not activate”. For the compound `CC(C)=CCCC(C)=CCCC(C)=CC=O` [farnesal], at FXR-RXRα complex, the “activation of the FXR-RXR complex” value is “somewhat less strongly”. As to `CC(C)=CCCC(C)=CCCC(C)=CC(=O)O` [farnesoic acid], the “activation of the FXR-RXR complex” value at FXR-RXRα complex is recorded as “somewhat less strongly”. Consider `CC(C)=CCC/C(C)=C/CO` [geraniol], for which the “activation of the FXR-RXR complex” value at FXR-RXRα complex was “did not activate”. In the case of `CC(C)=CCC/C(C)=C/CC/C(C)=C/CC/C(C)=C/CO` [geranylgeraniol], the “activation of the FXR-RXR complex” value on FXR-RXRα complex is listed as “somewhat less strongly”.

As to `CC(C)=CCC/C(C)=C/CC/C(C)=C/CC/C=C(\C)CC/C=C(\C)CCC=C(C)C` [squalene], the “activation of the FXR-RXR complex” value on FXR-RXRα complex is “did not activate”. juvenile hormone III: the “activation of FXR or RXR alone” value with FXR or RXR alone is “does not activate”. In addition, the “activation of the FXR-RXR complex” value at FXR-RXRα complex was “activated”. Also, the “FXR activity as stated” value at FXR-RXRα heterodimer is “an FXR agonist”.
